Patent publication US6525089B1, “Pharmaceutical composition containing decursin” (Binex Co., Ltd., priority 1998, dated 2003)

What was measured:
ICR mice [1] = assay: BUN and MDA in blood and MDA in renal tissue, alloxan-treated mice; assay type: in vivo; details: alloxan 75 mg/kg i.v., saline for 10 days
Experimental: (§1) 2 days after ICR mice were given alloxan (75 mg/kg, i.v.), their glucose levels at fasting were measured to select high-glucose mice. The high-glucose mice were divided into two groups; physiological saline solution was given to one group, while decursin was orally administered to the other group at a dose of 50 mg/kg for 10 days. The alloxan-free group was also orally given physiological saline solution for 10 days. The body weighs were checked periodically, together with urinary tests. To isolate their sera and kidney, mice were slightly anesthetized with ether and their abdomens were dissected. The blood samples were collected from heart to isolate the sera. The kidney was perfused with 0.9% NaCl and isolated after removal of the blood. Then the weight of right kidney was measured. Further, to measure the protein amount from the kidney tissues, these tissues were assayed according to the Bradford method using Bio-Rad protein assay kit in the presence of bovine serum albumin as a reference standard. To measure the MDA in the kidney tissues, 0.4 ml of 10% sodium dodecylsulfate was added to 0.5 ml of 10% kidney-tissue homogenization solution and left in water bath at 37° C. for 30 minutes; With the subsequent addition of 0.1N-HCl (2 ml) and 0.67% TBA (1 ml), the mixture was voltexed and left in boiling water bath for 30 minutes. The mixture was further cooled in ice bath for 2˜3 minutes to stop the reaction. Then 2 ml of n-butanol was added to the mixture, stirred well and centrifuged at 3000 rpm for 10 minutes. The supernatant was collected to measure the absorbance at 532 nm. 10 μg/ml tetraethoxypropane (TEP) was employed as a reference standard. To measure the MDA in sera, 0.8% thiobarbituric acid (TBA) was added to 0.5 ml of sera and left in boiling water bath for 30 minutes. The mixture was further cooled in ice bath for 2˜3 minutes to stop the reaction. The supernatant was collected to measure the absorbance at 532 nm. 10 μg/ml TEP was employed as a reference standard.
Mice were orally given decursin at a dose of 50 mg/kg for 10 days continuously. Then various parameters such as BUN and MDA in the blood as a marker of renal failure were measured, together with urinary test. When […] (table 4), the BUN value of single alloxan-treated group, 17.4±3.7 mg/dl was recovered to the normal level (4.8±0.6 mg/dl) by the treatment of decursin. The MDA value of single alloxan-treated group, 0.51±0.07, was reduced to 0.36±0.03 by the treatment of decursin, which was similar to a normal control group. Thus it was noted that the damage in the kidney was completely recovered. Since the reduction of both MDA values in the blood and kidney tissues may be clinically reasonable and desirable, the MDA value in the kidney tissues was measured. As a result, the MDA value in the kidney tissues of a single alloxan-treated group, 13.24±5.93, was reduced to 5.63±0.99 by the treatment of decursin, which was lower than that of normal control group (8.44±1.01).

ICR mice [2] = assay: Urinary test, alloxan-treated mice; assay type: in vivo; details: Alloxan group
Experimental: as §1

U-937 cells [3] = assay: Phagocytosis test; assay type: cell-based, human; details: 1 × 10^−7M, incubated 4 days
Experimental: (§2) U-937 cells were plated on a cell culture dish at a concentration of 2×10^5 cells/ml in a medium containing 10^−7M decursin and incubated in a 5% CO2 incubator at 37° C.
In the phagocytosis test, 10^6 cells were well stirred and pelleted by centrifugation at 2000 rpm for 5 minutes. 1 ml of 0.2% serum free medium solution in polystyrene particle were added to the pellets, swayed and incubated at 37° C. for 4 hours. After being washed with phosphate buffered saline (PBS) three times, cell pellets were harvested and then about 200 μl of DPBS was added. The solution was lightly swayed and checked under a microscope to observe a minimum number of 200 cells. The number of cells containing the particles was calculated by percentage.
The results of phagocytosis test designed to assess the functional change according to differentiation of U-937 cells was shown in the following Table 8.

U-937 cells [4] = assay: Esterase activity test: α-naphthyl acetate esterase; assay type: cell-based, human; details: percentage of cells showing activity
Experimental: To determine α-naphthyl acetate esterase activity in the esterase activity test, the cultured solution of U-937 cells was pelleted by centrifugation at 2000 rpm for 5 minutes, followed by the addition of 100 μl PBS to prepare a cell-concentrated solution. A drop of the cell solution was put on a slide glass and dried for more than 1 hour. Then 40 ml of deionized water was preheated at 37° C. 1 ml of […] solution was mixed with 1 ml of Fast Blue BB base solution and left for 2 minutes. The mixture, being turned to yellow color with thick brown, was added to 40 ml of the preheated deionized water. After the addition of 5 ml of TRIZMAL TM 7.6 buffer solution (Sigma Co. 870-2) and 1 ml of α-naphthyl acetate solution, the resulting solution, which was turned to green color, was poured into a petri dish. The cells on a slide glass were fixed with citrate-acetone-formaldehyde solution (CAF solution) at room temperature. The cells were soaked in the previously prepared solution and incubated at 37° C. for 30 minutes at a dark place. The cells were completely washed with deionized water for more than 2 minutes and counterstained with hematoxylin solution for 2 minutes, washed with tap water and dried in the air. After completely dried, the cells were observed under a microscope to determine the blackish cell numbers.
(§3) Thus it was considered that the cells were differentiated into macrophage.like cells by the action of decursin.

U-937 cells [5] = assay: Growth inhibition test (trypan blue exclusion); assay type: cell-based, human; details: 4 days (96 hours)
Experimental: U-937 cells, optioned from Korea Cell Line Bank, was cultured in RPMI 1640 medium (Sigma Co., R-6504) supplemented with 10% fetal bovine serum (FBS). The medium was exchanged every 5 day by 70%. U-937 cells were inoculated into a cell culture dish at concentration of 2×10^5 cells/ml. Then decursin added into the dish at concentration of 10^−8˜10^−6M, then the cells were cultured for 4 days. Trypan blue exclusion test was performed to determine the number of live cells using a hemacytometer, and the percentage of cancer-cell growth inhibition was calculated. Then, the differentiation was induced by treating with 10^−2M diluted ethanol solution containing various amount of decursin in the medium.

U-937 cells [6] = assay: NBT reduction test; assay type: cell-based, human; details: 1 × 10^−7M, incubated 4 days
Experimental: as §2
In the nitrobluetetrazolium (NBT) reduction test, cell solution (about 1×10^6 cells/ml) was well stirred and pelleted by centrifugation at 2000 rpm for 5 minutes. The pellets were suspended in 0.5 ml of medium, followed by the addition of a mixing solution (0.5 ml) containing 10^−6M formyl-methionine leucine phenylalanine (fMLP) and NBT 1.0 mg/DPBSml (1:9). The mixture was incubated at 37° C. for 30 minutes. The reaction was stopped in ice bath and centrifuged at 2000 rpm for 5 minutes. The supernatant was removed and then 200 μl of DPBS was added. The solution was lightly swayed and checked under a microscope to observe a minimum number of 200 cells. The number of NBT (+) cells was calculated by percentage.
The differentiation was investigated by using the fact that the differentiated leukocyte cells may generate superoxide anion by stimulation. […] The cultured mixture, which was reacted with superoxide, was reduced to form a precipitate. Then NBT was added to the precipitate (Table 7).

U-937 cells [7] = assay: Esterase activity test: naphthol AS-D chloroacetate esterase; assay type: cell-based, human; details: percentage of cells showing activity
Experimental: To determine naphthol AS-D chloroacetate esterase activity, the cultured solution of U-937 cells was pelleted by centrifugation at 2000 rpm for 5 minutes, followed by the addition of 100 μl PBS to prepare a cell-concentrated solution. A drop of the cell solution was put on a slide glass and dried for more than 1 hour. Then 40 ml of deionized water was preheated at 37° C. 1 ml of […] solution was mixed with 1 ml of Fast Red Violet LB base solution and left for 2 minutes. The mixture was added to 40 ml of preheated deionized water. After the addition of 5 ml of TRIZMAL TM 6.3) buffer solution (Sigma Co. T-3128) and 1 ml of naphthol AS-D chloroacetate solution, the resulting solution, which was turned to red color was poured on a petri dish. The cells on a slide glass were fixed with citrate-acetone-formaldehyde solution, (CAF solution) at room temperature. The cells were soaked in the previously prepared solution and incubated at 37° C. for 30 minutes at a dark place. The cells were completely washed with deionized water for more than 2 minutes and counterstained with hematoxylin solution for 2 minutes, washed with tap water and dried in the air. After completely dried, the cells were observed under a microscope to calculate the reddish cell numbers by percentage.
as §3

For O=C1NC(=O)C(=O)C(=O)N1 [alloxan], the BUN (ICR mice [1]) was 17.4 ± 3.7 mg/dL, the MDA in blood (ICR mice [1]) was 0.51 ± 0.07 µg/mL and the “MDA in renal tissue” value (ICR mice [1]) was 13.24 ± 5.93 µg/g. The “Urinary test Bilirubin: count in category +” value (ICR mice [2]) was 2, the “Urinary test Bilirubin: count in category ++” value (ICR mice [2]) was 6 and the “Urinary test Bilirubin: count in category +++” value (ICR mice [2]) was 2. The “Urinary test Glucose: count in category ++” value (ICR mice [2]) was 10, the “Urinary test Ketone: count in category ±” value (ICR mice [2]) was 3 and the “Urinary test Ketone: count in category −” value (ICR mice [2]) was 7. The “Urinary test Nitrite: count in category +” value (ICR mice [2]) was 4, the “Urinary test Nitrite: count in category −” value (ICR mice [2]) was 6 and the “Urinary test Occult blood: count in category ++” value (ICR mice [2]) was 2. The “Urinary test Occult blood: count in category +++” value (ICR mice [2]) was 8, the “Urinary test Protein: count in category −” value (ICR mice [2]) was 10 and the “Urinary test Specific gravity: count in category ++” value (ICR mice [2]) was 1. The “Urinary test Specific gravity: count in category +++” value (ICR mice [2]) was 9, the “Urinary test Urobilinogen: count in category +” value (ICR mice [2]) was 10 and the “Urinary test pH: count in category ±” value (ICR mice [2]) was 10.

In the case of C=C1CC[C@H](O)C/C1=C/C=C1\CCC[C@]2(C)[C@@H]([C@H](C)CCCC(C)C)CC[C@@H]12 [Vitamin D3, reference compound], the “Phagocytosis test: cells showing phagocytosis activity” value (U-937 cells [3]) is reported as 25.8 ± 1.3%, the “Phagocytosis test: cells showing phagocytosis activity” value (U-937 cells [3]; listed as vitamin D3) is reported as 25.8% and the “α-Naphtylacetate esterase Activity (%)” value (U-937 cells [4]) is reported as 79.3 ± 4.5%. The “α-Naphtylacetate esterase Activity (%)” value (U-937 cells [4]; listed as vitamin D3) was 80%, the “Growth inhibition rate (%)” value (U-937 cells [5]; 1 × 10^−6M) was 54.0 ± 6.7% and the “Growth inhibition rate (%)” value (U-937 cells [5]; 1 × 10^−7M) was 42.5 ± 6.4%. For the same molecule, the “Growth inhibition rate (%)” value (U-937 cells [5]; 1 × 10^−8M) was 26.0 ± 5.7%, the “Growth inhibition rate (%)” value (U-937 cells [5]; 5 × 10^−7M) was 48.0 ± 6.0% and the “Growth inhibition rate (%)” value (U-937 cells [5]; 5 × 10^−8M) was 33.5 ± 0.7%. The “NBT reduction test: positive cells” value (U-937 cells [6]) was 39.0 ± 2.1%, the “NBT reduction test: positive cells” value (U-937 cells [6]; listed as vitamin D3) was 39% and the “Naphtol AS-D chloroacetate esterase Activity (%)” value (U-937 cells [7]) was 0.0%.
